# Reference: patent US20050014765A1, “Aryl-heteroaromatic products, compositions comprising them and use” (Aventis Pharma S.A., priority 2003, published 2005)
# Where a name gives a salt, the structure may show the parent alone.
# Molecular target: T1, Tubulin purified from pig brains (Sus scrofa, UniProt P02550+P02554)
# T1 construct: Tubulin is purified from pig brains according to published methods; from tissue; host or cells: pig brain
# Experiment: Assessment of the inhibition of tubulin polymerization (turbidimetry at 350 nm)
# Type: biochemical
# Settings: concentration which inhibits the rate of polymerization by 50%; tubulin 1 mg/ml, 37° C.; read-out: Inhibition of tubulin polymerization IC 50
# Protocol: Assessment of the Inhibition of Tubulin Polymerization
# Tubulin is purified from pig brains according to published methods (Shelanski et al., 1973, Proc. Natl. Acad. Sci. USA, 70, 765-768. Weingarten et al., 1975, Proc. Natl. Acad. Sci. USA, 72, 1858-1862). Briefly, the brains are ground and centrifuged in an extraction buffer. The tubulin, present in the extract supernatant is subjected to two successive cycles of polymerization at 37° C. and depolymerization at 4° C., before being separated from the MAPs (Microtubule Associated Proteins) by chromatography on a phosphocellulose P11 column (Whatman). The tubulin thus isolated is more than 95% pure. It is stored in a buffer known as RB/2 30% glycerol, the composition of which is 50 mM MES-NaOH [2-(N-morpholino)ethanesulfonic acid], pH 6.8; 0.25 mM MgCl2; 0.5 mM EGTA; 30% (v/v) glycerol, 0.2 mM GTP (guanosine 5′-triphosphate).
# The polymerization of the tubulin into microtubules is monitored by turbidimetry as follows: the tubulin is adjusted to a concentration of 10 μm (1 mg/ml) in the RB/2 30% glycerol buffer, to which are added 1 mM GTP and 6 mM MgCl2. The polymerization is initiated by increasing the temperature from 6° C. to 37° C. in a cuvette with a 1 cm optical pathlength, placed in a UVIKON 931 spectrophotometer (Kontron) equipped with a thermostatically-regulated cuvette holder. The increase in turbidity of the solution is monitored at 350 nm.
# The products are dissolved at 10 mM in DMSO and added at variable concentrations (0.5 to 10 μm) to the tubulin solution before polymerization. The IC50 is defined as the concentration of the product which inhibits the rate of polymerization by 50%.
# T1 sequence (P02550 whole entry): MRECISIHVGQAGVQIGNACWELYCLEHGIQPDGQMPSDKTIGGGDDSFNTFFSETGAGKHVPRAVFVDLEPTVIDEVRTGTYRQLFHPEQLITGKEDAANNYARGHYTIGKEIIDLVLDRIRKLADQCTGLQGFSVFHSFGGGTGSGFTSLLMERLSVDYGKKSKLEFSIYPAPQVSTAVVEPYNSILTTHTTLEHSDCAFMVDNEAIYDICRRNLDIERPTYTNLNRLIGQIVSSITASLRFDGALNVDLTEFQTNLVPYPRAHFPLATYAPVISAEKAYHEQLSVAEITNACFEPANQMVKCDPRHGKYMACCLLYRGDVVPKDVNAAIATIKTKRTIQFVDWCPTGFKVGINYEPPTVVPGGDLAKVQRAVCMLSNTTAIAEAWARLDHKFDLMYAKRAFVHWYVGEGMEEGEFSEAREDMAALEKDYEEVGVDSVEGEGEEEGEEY
# T1 sequence (P02554 whole entry): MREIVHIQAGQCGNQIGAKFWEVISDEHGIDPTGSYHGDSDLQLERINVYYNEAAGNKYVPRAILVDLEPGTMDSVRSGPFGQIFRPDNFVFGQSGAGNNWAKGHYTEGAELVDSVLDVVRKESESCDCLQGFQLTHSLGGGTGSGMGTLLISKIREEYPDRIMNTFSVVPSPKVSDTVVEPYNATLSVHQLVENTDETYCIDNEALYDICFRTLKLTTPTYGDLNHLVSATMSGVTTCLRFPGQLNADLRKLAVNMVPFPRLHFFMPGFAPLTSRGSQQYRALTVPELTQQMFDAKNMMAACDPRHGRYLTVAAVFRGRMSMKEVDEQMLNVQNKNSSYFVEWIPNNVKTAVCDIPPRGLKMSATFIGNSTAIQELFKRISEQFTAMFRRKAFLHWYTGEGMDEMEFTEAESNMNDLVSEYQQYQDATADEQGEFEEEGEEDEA
row,Structure (SMILES),IC50 [µM]
1,"Cn1ccc(-c2ccccc2)c1C(=O)N1CCN(c2cccc(Cl)c2)CC1 [Example 7, [4-(3-Chlorophenyl)piperazin-1-yl](1-methyl-3-phenyl-1H-pyrrol-2-yl)-methanone]",12.8
2,"COC(=O)Cn1ccc(C(=O)N2CCN(c3cc(OC)cc(OC)c3)CC2)c1-c1ccccc1 [Example 49, Methyl 2-{3-[4-(3,5-dimethoxyphenyl)piperazin-1-yl]carbonyl-2-phenyl-1H-pyrrol-1-yl}acetate]",1.57
3,"COCCNc1nc(-c2ccccc2)c(C(=O)N2CCN(c3cc(C)cc(C)c3)CC2)s1 [Example 90, [4-(3,5-Dimethylphenyl)piperazin-1-yl][2-(2-methoxyethyl)amino-4-phenylthiazol-5-yl]methanone]",0.095
4,"COc1cccc(N2CCN(C(=O)c3ccoc3-c3ccc(Cl)cc3)CC2)c1 [Example 5, [4-(3-Methoxyphenyl)piperazin-1-yl][2-(4-chlorophenyl)furan-3-yl]methanone]",11.5
5,O=C(c1ccn(CCO)c1-c1ccccc1)N1CCN(c2cccc(CO)c2)CC1 [Example 89],2.99
6,"Cn1ccc(C(=O)N2CCN(c3cccc(CO)c3)CC2)c1-c1ccccc1 [Example 80, [4-(3-Hydroxymethylphenyl)piperazin-1-yl](1-methyl-2-phenyl-1H-pyrrol-3-yl)-methanone]",7.76
7,"COc1cc(OC)cc(N2CCN(C(=O)c3cc[nH]c3-c3ccccc3)CC2)c1 [Example 21, [4-(3,5-Dimethoxyphenyl)piperazin-1-yl](2-phenyl-1H-pyrrol-3-yl)methanone]",9.7
8,"NC(=O)c1cccc(N2CCN(C(=O)c3[nH]c(S)nc3-c3ccccc3)CC2)c1 [Example 44, 3-[4-(2-Mercapto-4-phenyl-1H-imidazol-5-ylcarbonyl)piperazin-1-yl]benzamide]",1.06
9,COC(=O)Cn1cc(C(=O)N2CCN(c3cccc(C(N)=O)c3)CC2)c(-c2ccccc2)c1 [Example 65],13.5
10,"N#Cc1cccc(N2CCN(C(=O)c3cn(Cc4cccnc4)cc3-c3ccccc3)CC2)c1 [Example 92, 3-{4-[1-(Pyridin-3-yl)methyl-4-phenyl-1H-pyrrol-3-ylcarbonyl]piperazin-1-yl}-benzonitrile]",0.167
11,"NC(=O)c1cccc(N2CCN(C(=O)c3ccn(CCO)c3-c3ccccc3)CC2)c1 [Example 77, 3-[4-(1-Hydroxyethyl-2-phenyl-1H-pyrrol-3-ylcarbonyl)piperazin-1-yl]-benzamide]",3.61
12,"O=C(O)CCn1cc(C(=O)N2CCN(c3cccc(Cl)c3)CC2)c(-c2ccccc2)c1 [Example 32, 3-{3-[4-(3-Chlorophenyl)piperazin-1-ylcarbonyl]-4-phenylpyrrol-1-yl}-propionic acid]",2.74
13,"COc1cc(OC)cc(N2CCN(C(=O)c3ccn(Cc4cccnc4)c3-c3ccccc3)CC2)c1 [Example 64, [4-(3,5-Dimethoxyphenyl)piperazin-1-yl][1-(3-pyridyl)methyl-2-phenyl-1H-pyrrol-3-yl]methanone]",13.4
14,"O=C(c1[nH]c(C(F)(F)F)nc1-c1ccccc1)N1CCN(c2cccc(CO)c2)CC1 [Example 83, [4-(3-Hydroxymethylphenyl)piperazin-1-yl](2-trifluoromethyl-4-phenyl-1H-imidazol-5-yl)methanone]",1.41
15,"CN(C)CCn1cc(C(=O)N2CCN(c3cccc(Cl)c3)CC2)c(-c2ccccc2)c1 [Example 31, [4-(3-Chlorophenyl)piperazin-1-yl][1-(2-dimethylaminoethyl)-4-phenyl-1H-pyrrol-3-yl]methanone hydrochloride]",25
16,"N#Cc1cccc(N2CCN(C(=O)c3[nH]c(C(F)(F)F)nc3-c3ccccc3)CC2)c1 [Example 84, 3-[4-(2-Trifluoromethyl-4-phenyl-1H-imidazol-5-ylcarbonyl)piperazin-1-yl]-benzonitrile]",0.574
17,"COc1cc(OC)cc(N2CCN(C(=O)c3cn(Cc4cscn4)cc3-c3ccccc3)CC2)c1 [Example 45, [4-(3,5-Dimethoxyphenyl)piperazin-1-yl][1-(thiazol-4-yl)methyl-4-phenyl-1H-pyrrol-3-yl]methanone]",4.85
